The text below walks through data of PubChem BioAssay AID2060500 (Molecular Pharmacology Branch, DTP, NCI, 2025).

This experiment relates to 596521-263-R-J1-PDC complex spheroids, viability % of control. Kind of experiment: Anticancer human tumor 596521-263-R-J1-PDC patient-derived soft tissue sarcoma cell line growth inhibition [GQUAD]. The note with it: for viability, T/C: stronger effect = lower value. From the text: DNA G-quadruplex Stabilizer Agents in Combinations in Complex Spheroids
A high-throughput screen of multi-cell type tumor spheroids was designed to identify active combinations of DNA G-quadruplex stabilizer agents and targeted small molecules. Complex spheroids include a stromal component modeled by human endothelial cells (HUVEC) and fibroblasts modeled by human mesenchymal stem cells (MSCs). The concentration ranges selected for each drug and investigational agent were based upon clinically achievable concentrations if the clinical Cmax of the agent was known.
Compounds. The drugs and investigational agents: pidnarulex (CX-5461; NSC782164), APTO-253 (NSC789042), BRACO-19 (NSC847499), peposertib (NSC802822), ceralasertib (NSC780249), elimusertib (NSC800525), camonsertib (NSC841442), AZD-1390 (NSC803789), olaparib (NSC753686), talazoparib (NSC767125), ART-558 (NSC835418), sotorasib (NSC818433), MRTX-1133 (NSC836407), SN-38 (NSC673596), topotecan (NSC609699), etoposide (NSC141540), doxorubicin (NSC123127), gemcitabine (NSC613327), 5-fluorouracil (NSC19893), paclitaxel (NSC125973), vemurafenib (NSC761431), panobinostat (NSC761190), R-306465 (JNJ-16241199; NSC773264), adavosertib (NSC754352), TP-3654 (NSC805149), carboplatin (NSC241240), KSQ-4279 (NSC840948), and staurosporine (NSC755774) were obtained from the National Cancer Institute (NCI) Developmental Therapeutics Program Chemical Repository (34). The FDA-approved anticancer drug set is available from the NCI Developmental Therapeutics Program. […] The stock solutions were prepared in dimethyl sulfoxide (DMSO, Sigma-Aldrich, St. Louis, MO, cat. D2650) at 800-fold the tested concentration and stored at -70 degrees C prior to their use. All drugs and investigational agents were tested over a range starting from a high concentration at or near the clinical Cmax and decreasing in half-log increments. If the clinical Cmax for an agent had not been determined, the highest concentration tested was 10 microM.
2.3 Cell Culture. All cells were maintained in an incubator at 37 degrees C and 5% CO2 with 95% humidity. The PDC lines were cultured according to standard operating procedures established by the NCI PDMR. All PDCs were thawed and cultured in Matrigel-coated flasks prepared with a working solution of 1X Ham's F-12 nutrient mix, without supplementation (Invitrogen, cat. 11765054), 100 U/mL penicillin-streptomycin (Invitrogen, cat. 15140122), and 2.5% Matrigel (Corning Inc., cat. 354248) for the first three passages. The 857933-349-R-J2-PDC line was cultured in 6C/Colon 1B media, which includes advanced DMEM/F-12 (Thermo Fisher Scientific, cat. 12634028), 10 mM HEPES (Thermo Fisher Scientific, cat. 15630080), 1X GlutaMAX supplement (Thermo Fisher Scientific, cat. 35050061), 0.1 mg/mL primocin (InvivoGen, cat. ant-pm-2), 10% defined fetal bovine serum, heat inactivated (HyClone Laboratories Inc., cat. SH30070.03HI), 50% L-WRN conditioned media (ATCC, cat. CRL-3276), 1.25 mM N-Acetyl-L-cysteine (Sigma-Aldrich, cat. A9165), 10 mM nicotinamide (Sigma-Aldrich, cat. N0636), 1X B-27 supplement (Thermo Fisher Scientific, cat. 17504044), 1X N-2 supplement (Thermo Fisher Scientific, cat. 17502048), 10 microM Y-27632 dihydrochloride (Tocris Bioscience, cat. 1254), and 50 ng/mL human EGF recombinant protein (Thermo Fisher Scientific, cat. PHG0311). The 485176-168-R4-J1-PDC line was cultured in Panc media, which includes all 6C/Colon 1B media components plus 100 ng/mL human FGF-10 (Thermo Fisher Scientific, cat. 100-26), 500 nM SB-431542 (Selleckchem, cat. S1067), and gastrin (Tocris, cat. 3006).
[…]

pIC50: −log10 of the molar value. “And” between values parts separate entries of the source, which are not always exact repeats. Equal values may be shown once.
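Further: spheroids exposed to drugs for 7 days before viability reading.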

On to `CC1COCCN1c1cc(-c2ccnn2C)c2ccnc(-c3ccn[nH]3)c2n1` (stereo unspecified) + Cc1[nH]c2ccc(F)cc2c1-c1nc2c3cccnc3c3ncccc3c2[nH]1, for which the pIC50 (in general, the negative decadic logarithm of the IC50, by convention in mol/L) was 6.40 (curve of first compound, second compound 0.0316 µM); 6.29 (curve of first compound, second compound 0.1 µM); 6.50 (curve of first compound, second compound 0.316 µM); 6.26 (curve of first compound, second compound 1 µM); 6.22 (curve of first compound, second compound 3.16 µM); 6.54 (curve of first compound, second compound 10 µM). Besides, the viability, T/C – broadly, the ratio of treated to control – reads like this: (second compound 0.0316 µM, first compound 0.0316 µM) 84.3%; (second compound 0.0316 µM, first compound 0.1 µM) 61.8%; (second compound 0.0316 µM, first compound 0.316 µM) 55.6%; (second compound 0.0316 µM, first compound 1 µM) 40.1%; (second compound 0.0316 µM, first compound 3.16 µM) 32.5%; (second compound 0.0316 µM, first compound 10 µM) 26%. Also, the viability, T/C by setting is: (second compound 0.1 µM, first compound 0.0316 µM) 81.3%; (second compound 0.1 µM, first compound 0.1 µM) 69.5%; (second compound 0.1 µM, first compound 0.316 µM) 52%; (second compound 0.1 µM, first compound 1 µM) 41.8%; (second compound 0.1 µM, first compound 3.16 µM) 37.9%; (second compound 0.1 µM, first compound 10 µM) 23.2%. For the same compound, the viability, T/C was 75.9% (second compound 0.316 µM, first compound 0.0316 µM); 57.2% (second compound 0.316 µM, first compound 0.1 µM); 50% (second compound 0.316 µM, first compound 0.316 µM); 43.2% (second compound 0.316 µM, first compound 1 µM); 31.8% (second compound 0.316 µM, first compound 3.16 µM); 25.3% (second compound 0.316 µM, first compound 10 µM). In addition, the viability, T/C (second compound 1 µM, first compound 0.0316 µM) was 71%; the viability, T/C (second compound 1 µM, first compound 0.1 µM) was 62.5%; the viability, T/C (second compound 1 µM, first compound 0.316 µM) was 57.1%; the viability, T/C (second compound 1 µM, first compound 1 µM) was 43.5%; the viability, T/C (second compound 1 µM, first compound 3.16 µM) was 34.3%; the viability, T/C (second compound 1 µM, first compound 10 µM) was 26%. Besides, the viability, T/C runs as follows: (second compound 3.16 µM, first compound 0.0316 µM) 67.3%; (second compound 3.16 µM, first compound 0.1 µM) 62.4%; (second compound 3.16 µM, first compound 0.316 µM) 53.2%; (second compound 3.16 µM, first compound 1 µM) 47.8%; (second compound 3.16 µM, first compound 3.16 µM) 36.3%; (second compound 3.16 µM, first compound 10 µM) 26.1%. Also, the viability, T/C reads like this: (second compound 10 µM, first compound 0.0316 µM) 64.5%; (second compound 10 µM, first compound 0.1 µM) 57%; (second compound 10 µM, first compound 0.316 µM) 49.6%; (second compound 10 µM, first compound 1 µM) 40.9%; (second compound 10 µM, first compound 3.16 µM) 32.9%; (second compound 10 µM, first compound 10 µM) 25.4%.

`Cc1[nH]c2ccc(F)cc2c1-c1nc2c3cccnc3c3ncccc3c2[nH]1`: the viability, T/C reads like this: (compound 0.0316 µM) 102% [middle of 12 runs]; (compound 0.1 µM) 102% [middle of 12 runs]; (compound 0.316 µM) 101% [middle of 12 runs]; (compound 1 µM) 101% [middle of 12 runs]; (compound 3.16 µM) 93.6% [middle of 12 runs]; (compound 10 µM) 85.7% [middle of 12 runs]. In addition, the pIC50 was less than 5.00 (compound alone, run of 04/16/2024) and less than 5.00 (compound alone, run of 04/22/2024).

With `CC1COCCN1c1cc(C2(S(C)(=N)=O)CC2)nc(-c2ccnc3[nH]ccc23)n1` (stereo unspecified), the viability, T/C is, setting by setting: (compound 0.0316 µM) 95.1% and 98% and 118%; (compound 0.1 µM) 110% and 95.7% and 101%; (compound 0.316 µM) 84.8% and 84.3% and 101%; (compound 1 µM) 83.6% and 72.9% and 77.3%; (compound 3.16 µM) 73.7% and 63.8% and 58%; (compound 10 µM) 52.1% and 46.3% and 51.5%. Under “curve of compound”, the pIC50 is < 5.00 and 5.10.

Consider `C=CC(=O)N1CCN(c2nc(=O)n(-c3c(C)ccnc3C(C)C)c3nc(-c4c(O)cccc4F)c(F)cc23)C(C)C1` (stereo unspecified), for which the viability, T/C reads like this: (compound 0.0316 µM) 107% and 105% and 114%; (compound 0.1 µM) 92.7% and 91.9% and 95.5%; (compound 0.316 µM) 96.9% and 101% and 108%; (compound 1 µM) 114% and 120% and 118%; (compound 3.16 µM) 96.2% and 97% and 113%; (compound 10 µM) 73.2% and 66.5% and 84.6%. Also, under “curve of compound”, the pIC50 was less than 5.00.

Regarding `Cn1ncnc1[C@H]1c2n[nH]c(=O)c3cc(F)cc(c23)N[C@@H]1c1ccc(F)cc1`, the viability, T/C (compound 0.000999 µM) was 92.8% and 91% and 93.5%; the viability, T/C (compound 0.00316 µM) was 93.2% and 98.2% and 100%; the viability, T/C (compound 0.00999 µM) is 93.6% and 94% and 101%; the viability, T/C (compound 0.0316 µM) was 94.5% and 86.7% and 93.1%; the viability, T/C (compound 0.0999 µM) is 89.3% and 80.8% and 106%; the viability, T/C (compound 0.316 µM) is 92.8% and 88% and 76.6%. Under “curve of compound”, the pIC50 was less than 6.50.
